According to patent US20050123613A1, “Activated carbon infusion solution, preparation method therefor and use thereof for the manufacture of drug for treating cancer” (priority 2003, published 2005):

Experiments:
[1] = Measured adsorption values of drugs on activated carbon; format: physicochemical; conditions: specific surface area 6800M^2/g
[2] = Measured adsorption values of drugs on hydroxyl-amino carbon; format: physicochemical; conditions: specific surface area 6800M^2/g
[3] = tested on: cancer patients; assay: Experimental clinical cases, intravenous injection; format: in vivo, human; conditions: Case 4, breast cancer with systematic metastasis, before activated carbon treatment

| Molecule | Adsorption value on activated carbon [1] [mg] | Adsorption value on hydroxyl-amino carbon [2] [mg] | Analgesia [3] |
| --- | --- | --- | --- |
| O=c1[nH]cc(Cl)c(=O)[nH]1 [5-chlorouracil] | 75 | 102 |  |
| O=c1[nH]cc(F)c(=O)[nH]1 [5-fluorouracil, reference compound] |  | 49 |  |
| O=P1(N(CCCl)CCCl)NCCCO1 (stereo not drawn) [CTX, reference compound] | 98 | 136 |  |
| S=c1nc[nH]c2nc[nH]c12 [Example 6-MP, 6-MP, reference compound] | 220 | 304 |  |
| CN1CC[C@]23c4c5ccc(O)c4O[C@H]2[C@@H](O)C=C[C@H]3[C@H]1C5 [Morphine] |  |  | of no effect |
| Nc1ncnc2nc[nH]c12 [adenine] | 213 | 260 |  |
| ClC(Cl)Cl [chloroform] | 10 | 4 |  |
| N.N.[Cl][Pt][Cl] [cisplatin, reference compound] | 995 | 1105 |  |
| Nc1nc2nc[nH]c2c(=O)[nH]1 [guanine] | 331 | 378 |  |
| Cc1c[nH]c(=O)[nH]c1=O [thymine] | 5 | 17 |  |
| O=c1cc[nH]c(=O)[nH]1 [uracil] | 33 | 51 |  |
| ferroporphyrin | 283 | 311 |  |
| thymopeptide | 90 | 127 |  |
